“And” between values parts separate entries of the source, which are not always exact repeats. Equal entries are not always repeated. “Also recorded” adds a separate entry of the source.
Key:
[1] = test system: patients with moderately severe Acute Lung Injury (ALI); test: Adult ALI/ARDS study: safety results (adverse events); format: in vivo, human; settings: initial 28-day study period
Description: A large-scale, randomized, blinded, placebo-controlled study was carried out in the Intensive Care Units (ICUs) of 46 US hospitals to evaluate the efficacy of low-dose (5 ppm) iNO in 385 patients with moderately severe Acute Lung Injury (ALI). The primary endpoint of this study was number of days alive and off assisted breathing.
Safety results for the initial 28-day study period have been reported and are summarized briefly here. A total of 630 adverse events (AEs) were reported for patients treated with iNO versus 666 events for those who received placebo. Respiratory system AEs occurred in 51% versus 61% of patients receiving iNO and placebo, respectively, primarily due to higher frequencies of pneumonia, pneumothorax, and apnea in the placebo group. Frequency of other AEs was similar in both groups.
Patients were randomly assigned to receive either inhaled placebo gas (nitrogen) or 5 ppm of iNO (INO Therapeutics Inc., Port Allen, La.). All patients, healthcare professionals, and investigators were blinded to the assigned treatment. Inhaled NO was administered via INOvent® delivery system (Datex-Ohmeda, Madison, Wis.) that blended treatment gas (nitrogen or NO at 100-ppm balance nitrogen) 1:20 with ventilator gases to achieve a target ppm value in the inspiratory limb of the ventilator.

[2] = test system: pediatric subjects with acute hypoxemic respiratory failure (AHRF); test: Pediatric AHRF study, nitric oxide 5 ppm versus placebo: efficacy and subject outcome; format: in vivo, human
Description: This was a prospective, multicenter, randomized, double-blind, placebo-controlled, parallel-group study of the safety and efficacy of inhaled nitric oxide in pediatric subjects with acute hypoxemic respiratory failure (AHRF). The subjects were randomized to receive either 5 ppm inhaled nitric oxide or placebo.
Nitric Oxide for inhalation at 5 ppm was administered continuously into the inspiratory limb of the ventilator circuit in mechanically ventilated subjects using a blinded version of the INOvent® delivery system.
Subjects received 100% treatment gas (nitric oxide 5 ppm or placebo [nitrogen gas]) until Day 28 or extubation, whichever occurred first.
Placebo consisting of 100% Grade 5 nitrogen gas was administered continuously into the inspiratory limb of the ventilator circuit in mechanically ventilated subjects using a blinded version of the INOvent® delivery system at a rate equivalent to a 5 ppm dose of nitric oxide.
This was a prospective, multicenter, randomized, double-blind, placebo-controlled, Phase III study to assess the effects of nitric oxide for inhalation in the treatment of acute hypoxic respiratory failure (AHRF) in pediatric subjects. The study population consisted of male and female pediatric subjects, aged 44 weeks postconceptional age to 16 years age, who were admitted to the pediatric intensive care unit (PICU) and who required intubation because of AHRF. The inclusion/exclusion criteria are described in the Patients section below.
Standardized ventilatory management and weaning procedures were used. Ventilatory management was used based on an “open lung approach” using positive end-expiratory pressure (PEEP) to increase lung volume and limiting tidal volumes to reduce plateau pressures. Subjects received nitric oxide for inhalation at 5 ppm or placebo (100% Grade 5 nitrogen gas) into the inspiratory limb of the ventilator circuit using a blinded version of the INOvent® delivery system. The subjects were treated until Day 28 or extubation, whichever occurred first. Subjects were assessed daily using a spontaneous breathing trial, according to the institution's standard of care. Arterial blood gases (ABG), ventilator settings, methemoglobin, oxygenation index, systolic blood pressure, diastolic blood pressure, Pediatric Risk of Mortality (PRISM) III score, and subject positioning (prone or supine) were performed/recorded at specified times during the study. Selected centers also performed plasma cytokine assays, bronchoalveolar lavage fluid (BALF) assays, and a 6-month follow-up assessment.
Inclusion criteria for patients were as follows: • 1. 44 weeks post-conceptional age to 16 years of age • 2. Oxygenation Index (OI)≥12 cm H2O/mmHg (as determined by two separate measurements taken 30 minutes to 4 hours apart) • 3. Recent chest x-ray (within 24 hours) showing at least unilateral infiltrates • 4. Mechanically ventilated (oral or nasopharyngeal)<7 days
Exclusion criteria for patients were as follows: • 1. Immunocompromised • 2. Received a bone marrow transplant • 3. Active oncological condition • 4. Persistent right to left intracardiac shunt • 5. Cardiovascular surgery within the last 14 days • 6. Status asthmaticus • 7. Decision by primary care physician not to provide full support (futility) • 8. Received treatment with nitric oxide for inhalation or other investigational medications with 24 hours prior to study initiation. • 9. Chronically ventilated • 10. Pregnant Study Design and Schedule of Assessments:
Extubation was considered when: • i. Pressure support of <10 cm H2O • ii. FiO2<0.60 • iii. PEEP<6 cm H2O • iv. Nitric oxide has been discontinued for 30 minutes
Extubation occurred within 12 hours of meeting the above criteria. If a patient met the above criteria but was not extubated within 12 hours, the reason (i.e. airway protection, surgery, secretions clearance, etc.) was documented.

[3] = 5 ppm, discharge evaluation, N 26
[4] = 5 ppm, in words, approached statistical significance

[N]=O [Nitric Oxide, nitric oxide]
Frequency of other (non-respiratory) AEs versus placebo [1]: similar
Respiratory system AEs, patients ([1]; placebo 61%): 51%
adverse events (AEs) reported, total ([1]; placebo 666): 630
completed 28 days of the study or successfully extubated ([2]; 5 ppm): 21 (80.8%) n (%)
Days on supplemental O2, Median ([2]; 5 ppm, N 10): 18.1 days
Number of days on supplemental O2, Mean (SD) ([2]; 5 ppm, N 10): 19.6 (13.4) ^ days and 19.6 (13.4) days
Days originally intubated, Median ([2]; 5 ppm, N 20): 13.7 days
Number of days originally intubated, Mean (SD) ([2]; 5 ppm, N 20): 13.6 (6.8) ^ days and 13.6 (6.8) days
Days in PICU, Median ([2]; 5 ppm, N 22): 17.3 days
Number of days in PICU, Mean (SD) ([2]; 5 ppm, N 22): 17.8 (8.3) ^ days and 17.8 (8.3) days
Clinical sepsis [2, 3]: 4 (15.4%) n (%)
Died (cause of death related to pulmonary condition) [2, 3]: 0 (0) ^ n (%)
ECMO at any time during treatment [2, 3]: 0 (0) ^ n (%)
HFOV at any time during treatment [2, 3]: 11 (42.3%) n (%)
Intubated on Day 28 [2, 3]: 2 (7.7%) n (%)
Pneumothorax [2, 3]: 3 (11.5%) n (%)
Receiving supplemental O2 on Day 28 [2, 3]: 11 (42.3%) n (%)
Survival [2, 3]: 23 (88.5%) n (%)
VAP (ventilator-associated pneumonia) [2, 3]: 5 (19.2%) n (%)
days in the PICU versus placebo ([2]; 5 ppm, in words): lower
duration (mean number of days) of supplemental oxygen versus placebo ([2]; 5 ppm, in words): higher
frequency of extracorporeal membrane oxygenation versus placebo ([2]; 5 ppm, in words): lower
frequency of high frequency oscillatory ventilation versus placebo ([2]; 5 ppm, in words): lower
frequency of pneumothorax versus placebo ([2]; 5 ppm, in words): lower
frequency of ventilator-associated pneumonia at discharge versus placebo ([2]; 5 ppm, in words): higher
mean duration (number of days) of intubation versus placebo ([2]; 5 ppm, in words): lower
duration of mechanical ventilation (MV) [2, 4]: shortened
rate of survival [2, 4]: improved
rate of ECMO free survival versus placebo ([2]; 5 ppm, in words, listed as iNO): significantly greater; also recorded: significantly higher
Day 28 (completed 28 days) ([2]; 5 ppm, n = 26, subject outcome): 1 (3.8%) n (%)
Death ([2]; 5 ppm, n = 26, subject outcome): 2 (7.7%) n (%)
Successful extubation ([2]; 5 ppm, n = 26, subject outcome): 20 (76.9%) n (%)
Total discontinued ([2]; 5 ppm, n = 26, subject outcome): 5 (19.2%) n (%)
rate of ECMO free survival ([2]; 5 ppm, placebo 15 of 29, p<0.01): 22 of 24
Survival at 28 days ([2]; 5 ppm, placebo 21 of 29, p=0.07): 22 of 24
survival rate ([2]; 5 ppm, placebo 72.4%): 88.5%
oxygenation index (OI) ([2]; 4 hours, 5 ppm, placebo 26.1+/−19.5, p=0.09): 14.3+/−5.9
oxygenation index (OI) ([2]; 12 hours, 5 ppm, placebo 24.5+/−22.0, p=0.04): 14.7+/−6.0
oxygenation index (OI) ([2]; 24 hours, 5 ppm, placebo 16.7+/−9.9, p=0.53): 15.2+/−10.8
number of days that a child is ventilator-free at 28 days after the start of iNO therapy ([2]; in words): increased

Source: patent US10201564B2, “Methods of using inhaled nitric oxide gas for treatment of acute respiratory distress syndrome in children” (Mallinckrodt Hospital Products IP Limited, priority 2014, dated 2019)
